Data reported in patent US3976545A, “1,2,4-Triazol E-3-carboxamides as antiviral agents” (ICN Pharmaceuticals, Inc., priority 1975, dated 1976).
Where two headings read alike, the source gives them in different places.

Assays:
Vaccinia = assay type: cell-based; conditions: KB cells, VR >0.5 significant, <0.5 slight activity
Measles = Measles virus plaque inhibition (agar overlay); assay type: cell-based; conditions: Measles morbillivirus, 96 h, day 4; for inhibition at 20 µg/mL: 20 μg/ml; for inhibition at 100 µg/mL: 100 μg/ml; for inhibition at 500 µg/mL: 500 μg/ml
Excerpt: In experiments with measles virus, the above method was altered in that the infected cells were covered with an agar-serum-bicarbonate overlay containing the antiviral compounds so that viral plaques could be discerned. These plaques were strained with neutral red dye on day 4 and counted, with any reduction in plaque number resulting from exposure to the antiviral compound determined. The methodology for the experiment is as described by Wear et al (Exptl. and Molecular Pathol. 9:405-417, 1968).

Type 56 Rhino = test: CPE inhibition in KB cells, Type 56 Rhino; assay type: cell-based; conditions: VR >0.5 significant, <0.5 slight activity
Method: (§1) They were tested for activity using the virus-induced cytopathogenic effect (CPE) method of Sidwell, et al., (Applied Microbiology 22:797-801, 1971). Briefly, the CPE procedure includes the dissolution of the antiviral agent in a cell culture medium consisting of vitamins, amino acids, serum, buffer, penicillin, streptomycin and indicator dye in water. The virus suspended in the cell culture medium was added to an established monolayer of KB cells, and an equal volume of the antiviral agent was then added within 15 minutes. The infected treated cells were graded following microscopic examination. Controls for each experiment include cell controls (cells and cell culture medium only), virus controls (cells and virus and cell culture medium) and toxicity controls (cells and chemical and cell culture medium).
(§2) The virus rating (VR) system of Sidwell et al, described in Applied Microbiology, supra, was used to evaluate the degree of significance of CPE inhibition.

Type 8 Rhino = test: CPE inhibition in KB cells, Type 8 Rhino; assay type: cell-based; conditions: VR >0.5 significant, <0.5 slight activity
Method: as §1, §2

Type 1A Rhino = test: CPE inhibition in KB cells, Type 1A Rhino; assay type: cell-based; conditions: VR >0.5 significant, <0.5 slight activity
Method: as §1, §2

Type 1 Herpes = test: CPE inhibition in KB cells, Type 1 Herpes; assay type: cell-based; conditions: VR >0.5 significant, <0.5 slight activity
Method: as §1, §2

Type 13 Rhino = test: CPE inhibition in KB cells, Type 13 Rhino; assay type: cell-based; conditions: VR >0.5 significant, <0.5 slight activity
Method: as §1, §2

Type 2 Herpes = test: CPE inhibition in KB cells, Type 2 Herpes; assay type: cell-based; conditions: VR >0.5 significant, <0.5 slight activity
Method: as §1, §2

Type 3 Parainfluenza = test: CPE inhibition in KB cells, Type 3 Parainfluenza; assay type: cell-based; conditions: VR >0.5 significant, <0.5 slight activity
Method: as §1, §2

in vitro = conditions: human, kb cells
mice = conditions: for MST / Survivors Per Total / Average Lung Consolidation / HA Titer Per ml: Drug + MEM; for Average Lung Consolidation: Day 25, scale of 0-4; for HA Titer Per ml: lung homogenates Day 25
Nucleoside Phosphorylase = biological target: T1, Nucleoside Phosphorylase (Bos taurus, UniProt P55859); test: Nucleoside Phosphorylase assay (conversion of 1,2,4-triazole-3-carboxamide to its 1-β-D-ribofuranosyl nucleoside); assay type: biochemical, calf (spleen); conditions: pH 7.4, 25°, 5 minutes
T1 construct: purchased Sigma Chemical Co., St. Louis, Mo; host or cells: calf spleen
T1 sequence (P55859 1-289): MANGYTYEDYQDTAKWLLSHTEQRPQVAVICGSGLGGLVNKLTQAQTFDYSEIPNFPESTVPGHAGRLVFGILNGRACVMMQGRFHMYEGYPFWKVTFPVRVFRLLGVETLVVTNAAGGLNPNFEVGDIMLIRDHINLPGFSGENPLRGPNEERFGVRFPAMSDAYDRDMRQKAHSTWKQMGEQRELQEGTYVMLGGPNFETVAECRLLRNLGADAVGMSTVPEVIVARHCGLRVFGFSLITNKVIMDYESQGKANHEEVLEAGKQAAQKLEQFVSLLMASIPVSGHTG
Method: 1,2,4-Triazole-3-carboxamide may be converted to 1-β-D-ribofuranosyl- 1,2,4-triazole-3-carboxamide by reaction with the enzyme Nucleoside Phosphorylase at a pH within the range of about 5 to about 9, preferably 7 to 8, at an enzyme concentration of from about 0.015 to about 0.75 mg/ml, preferably about 0.15 mg/ml, and a temperature within the range of about 0° to about 50°C, with the preferred temperature being approximately 25° to about 35°C. Satisfactory results have been obtained when the triazole base is present in a concentration greater than 5×10^^-5 M and ribose-1-phosphate is present at a concentration greater than 2×10^^-5 M. Generally about 0.1 to about 2 hours, preferably about 0.5 to about 1 hour, are required for the reaction. The source of the enzyme may be animal, tissue, or bacteria. The principal bacterial sources are E. coli and […], while a variety of animal sources exist, including beef spleen, rat liver, calf liver, calf thymus, beef liver, monkey brain, horse liver, calf spleen, human erythrocytes, fish skin, and fish muscle. […]
The samples were incubated at 25° for 5 minutes and then frozen in dry ice - isopropanol to stop the reaction. […] Areas of the chromatograms coinciding with 1,2,4-triazole-3-carboxamide were removed and counted to determine the percent of conversion of 1,2,4 -triazole-3-carboxamide to 1-β-D-ribofuranosyl-1,2,4-triazole-3-carboxamide.

influenza A2 virus = assay type: in vivo, Female Swiss Mice; conditions: for Average Lung Consolidation: Day 25, scale of 0-4; for effectiveness against influenza virus: summary in words
[1] = Compound 1, 250 mg/kg/day ip, schedule 1
[2] = Compound 1, 500 mg/kg/day ip, schedule 1
[3] = Compound 1, 1000 mg/kg/day ip, schedule 1
[4] = Compound 1, 250 mg/kg/day ip, Drug + Virus, schedule 1
[5] = Compound 1, 500 mg/kg/day ip, Drug + Virus, schedule 1
[6] = Compound 1, 1000 mg/kg/day ip, Drug + Virus, schedule 1
[7] = Compound 2, 250 mg/kg/day ip, schedule 3
[8] = Compound 2, 500 mg/kg/day ip, schedule 3
[9] = Compound 2, 1000 mg/kg/day ip, schedule 2
[10] = Compound 2, 75 mg/kg/day ip, Drug + Virus, schedule 1
[11] = Compound 2, 250 mg/kg/day ip, Drug + Virus, schedule 3
[12] = Compound 2, 500 mg/kg/day ip, Drug + Virus, schedule 3
[13] = Compound 2, 1000 mg/kg/day ip, Drug + Virus, schedule 2

SMILES: NC(=O)c1ncn([C@@H]2O[C@H](CO)[C@@H](O)[C@H]2O)n1 [Compound 3, 1-β-D-Ribofuranosyl-1,2,4-triazole-3-carboxamide]
- Virus Rating (Vaccinia): 0.9-1.0
- inhibition at 20 µg/mL (Measles): 30%
- inhibition at 100 µg/mL (Measles): 94%
- inhibition at 500 µg/mL (Measles): 100%
- Virus Rating (Type 56 Rhino): 0.9
- Virus Rating (Type 8 Rhino): 0.8
- Virus Rating (Type 1A Rhino): 0.6
- Virus Rating (Type 1 Herpes): 1.0-1.5
- Virus Rating (Type 13 Rhino): 0.5
- Virus Rating (Type 2 Herpes): 1.3
- Virus Rating (Type 3 Parainfluenza): 0.6-1.0

SMILES: NC(=O)c1nc[nH]n1 [Compound 1, 1,2,4-Triazole-3-carboxamide]
- MCC (in vitro): 32 to 1000 µg/mL
- MST (mice; [1]): > 21.0 days
- Survivors Per Total (mice; [1]): 5/5
- MST (mice; [2]): > 21.0 days
- Survivors Per Total (mice; [2]): 5/5
- MST (mice; [3]): > 21 days
- Survivors Per Total (mice; [3]): 5/5
- toxicity to mice (mice; concentrations as high as 1000 mg/kg/day, intraperitoneally twice daily for 9 days): nontoxic
- Virus Rating (Vaccinia): 0.8
- inhibition at 20 µg/mL (Measles): 34%
- inhibition at 100 µg/mL (Measles): 97%
- inhibition at 500 µg/mL (Measles): 99%
- Virus Rating (Type 56 Rhino): 0.3
- Virus Rating (Type 8 Rhino): 0.2
- Virus Rating (Type 1A Rhino): 0.4-0.5
- Virus Rating (Type 1 Herpes): 0.6-0.9
- % Conversion (Nucleoside Phosphorylase; - enzyme): 0.8%
- % Conversion (Nucleoside Phosphorylase; - ribose-1-P, + enzyme, 80μg): 1.1%
- MST (influenza A2 virus; [4]): 17.5 days
- Survivors Per Total (influenza A2 virus; Compound 1, 250 mg/kg/day ip, Drug + Virus, schedule 1 (P<0.05)): 8/10
- Average Lung Consolidation (influenza A2 virus; [4]): 1.4
- MST (influenza A2 virus; [5]): 12.0 days
- Survivors Per Total (influenza A2 virus; Compound 1, 500 mg/kg/day ip, Drug + Virus, schedule 1 (P<0.1)): 7/10
- Average Lung Consolidation (influenza A2 virus; [5]): 2.5
- MST (influenza A2 virus; [6]): 15 days
- Survivors Per Total (influenza A2 virus; Compound 1, 1000 mg/kg/day ip, Drug + Virus, schedule 1 (P<0.05)): 8/10
- Average Lung Consolidation (influenza A2 virus; [6]): 2.0
- HA Titer Per ml (influenza A2 virus; Compound 1, 1000 mg/kg/day ip, Drug + Virus, schedule 1, lung homogenates Day 25): 1.3
- effectiveness against influenza virus (influenza A2 virus): particularly effective against influenza virus
- Virus Rating (Type 13 Rhino): 0.3
- Virus Rating (Type 2 Herpes): 0.4
- Virus Rating (Type 3 Parainfluenza): 0.5-0.7

SMILES: NC(=S)c1nc[nH]n1 [Compound 2, 1,2,4-Triazole-3-thiocarboxamide]
- MCC (in vitro): ≥ 1 µg/mL
- MST (mice; [7]): > 21.0 days
- Survivors Per Total (mice; [7]): 5/5
- Average Lung Consolidation (mice; [7]): 0.5
- HA Titer Per ml (mice; [7]): 0
- MST (mice; [8]): 9.0 days
- Survivors Per Total (mice; [8]): 4/5
- Average Lung Consolidation (mice; [8]): 2.0
- HA Titer Per ml (mice; [8]): 0
- MST (mice; [9]): 4.2 days
- Survivors Per Total (mice; [9]): 0/5
- toxicity to mice (mice; concentrations as low as 250 mg/kg/day, intraperitoneally, same treatment regimen (twice daily for 9 days)): moderately toxic as evidenced by weight loss and death
- Virus Rating (Vaccinia): 0.5
- inhibition at 20 µg/mL (Measles): 5%
- inhibition at 100 µg/mL (Measles): 98%
- inhibition at 500 µg/mL (Measles): 100%
- Virus Rating (Type 56 Rhino): 0.4
- Virus Rating (Type 8 Rhino): 0.3
- Virus Rating (Type 1A Rhino): 0.2-0.4
- Virus Rating (Type 1 Herpes): 0.4-0.8
- MST (influenza A2 virus; [10]): > 21.0 days
- Survivors Per Total (influenza A2 virus; Compound 2, 75 mg/kg/day ip, Drug + Virus, schedule 1 (P<0.001)): 10/10
- Average Lung Consolidation (influenza A2 virus; [10]): 1.0
- MST (influenza A2 virus; [11]): 9.2 days
- Survivors Per Total (influenza A2 virus; Compound 2, 250 mg/kg/day ip, Drug + Virus, schedule 3 (P<0.2)): 6/10
- Average Lung Consolidation (influenza A2 virus; [11]): 3.6
- MST (influenza A2 virus; [12]): 7.6 days
- Survivors Per Total (influenza A2 virus; Compound 2, 500 mg/kg/day ip, Drug + Virus, schedule 3 (P>0.3)): 5/10
- Average Lung Consolidation (influenza A2 virus; [12]): 2.2
- MST (influenza A2 virus; [13]): 8.3 days
- Survivors Per Total (influenza A2 virus; Compound 2, 1000 mg/kg/day ip, Drug + Virus, schedule 2 (P>0.3)): 3/10
- Average Lung Consolidation (influenza A2 virus; [13]): 3.7
- effectiveness against influenza virus (influenza A2 virus): particularly effective against influenza virus
- Virus Rating (Type 13 Rhino): 0.4
- Virus Rating (Type 2 Herpes): 0.3
- Virus Rating (Type 3 Parainfluenza): 0.2-0.4
